Legend:
[1] = system: CTG repeat in the 3′ UTR of human DMPK gene; test: Dual-cut screening: CTG repeat excision efficiency by loss-of-signal ddPCR; type: cell-based; settings: sgRNA pair, primary DM1 patient myoblasts; for Excision efficiency (by ddPCR): 3 μM DNA-PKi Compound 6 for 48 hours; for Excision efficiency by ddPCR (Vehicle): vehicle (DMSO)
Method: RNPs were assembled with recombinant SluCas9 protein and chemically modified sgRNAs at a ratio of 1:3 (protein:sgRNA). For SINGLE-cut screening, RNP complexes were assembled with 30 pmol of SluCas9 and 90 pmol of sgRNA in P5 Primary Cell Nucleofector Solution (Lonza). After incubation at room temperature for 20 minutes, 10 μL of RNP complex were mixed with two hundred thousand of primary myoblasts resuspended in 10 μL of P5 Nucleofector Solution. For DOUBLE-cut screening, RNP complexes were first assembled for individual sgRNAs with 20 pmol of SluCas9 protein and 60 pmol of sgRNAs in 5 μL of P5 Nucleofector Solution. After incubation at room temperature for 20 minutes, the two RNP complexes (one for upstream sgRNA and one for downstream sgRNA) were mixed at 1:1 ratio and then further mixed with two hundred thousand of primary myoblasts resuspended in 10 μL of P5 Nucleofector Solution.
The Nucleofector 96-well Shuttle System (Lonza) was used to deliver the SluCa9/sgRNA RNPs into primary DM1 patient myoblasts using the nucleofection program CM138. Following nucleofection, myoblasts from each well of nucleofection shuttle were split into six wells of the 96-well cell culture plate (Greiner, 655090) coated with matrigel. The first three wells were treated with DMSO for 48 hrs before changing to fresh myoblast growth medium, and the other three wells were treated with 3 μM of DNA-PKi Compound 6 for 48 hrs before changing to fresh myoblast growth medium. 72 hrs post nucleofection, two wells of DMSO-treated myoblasts and two wells of DNA-PKi-treated myoblasts from each nucleofection were harvested for genomic DNA extraction using the Kingfisher Flex purification system (Thermal Fisher), whereas one well of DMSO-treated myoblasts and one well of DNA-PKi-treated myoblasts were stained for RNA foci by FISH staining.
The primers and probes of ddPCR are designed using the online primer design software Primer3Plus (http://www.bioinformatics.nl/cgi-bin/primer3plus/primer3plus.cgi). In some embodiments, two target primers/probe sets were used to detect CTG repeat excision, and a reference primers/probe set were used to amplify a region located in Exon 1 of human DMPK gene and to serve as a reference control for the target sets. The 24 μL of ddPCR reaction consists of 12 μL of Supermix for Probes (no dUTP) (Bio-Rad Laboratories), 1 μL of Reference primers mix (21.6 μM), 1 μL of Reference probe (6 μM), 1 μL of Target primers mix (21.6 μM), 1 μL of Target probe (6 μM), and 8 μL of sample genomic DNA. Droplets were generated using probe oil with the QX200 Droplet Generator (Bio-Rad Laboratories). Droplets were transferred to a 96-well PCR plate, sealed and cycled in a C1000 deep well Thermocycler (Bio-Rad Laboratories) under the following cycling protocol: 1 cycle at 95° C. for 10 min; 40 cycles of 94° C. for 30 see, and 58° C. for 1 min; 1 cycle at 98° C. for 10 min (for enzyme inactivation). The cycled plate was then transferred and read in the FAM and HEX channels using the Bio-Rad QX200 Droplet Reader (Bio-Rad Laboratories). ddPCR analysis is performed with the Bio-Rad QuantaSoft Pro Software.
To assess the efficiency of SluCas9 sgRNA pairs for inducing CTG repeat excision, Dual-cut screening was performed in which individual SluCas9 sgRNAs and recombinant SluCas9 protein were assembled into ribonucleoprotein (RNP) and delivered into primary DM1 patient myoblasts. Nucleofected myoblasts were treated with either DMSO (vehicle) or 3 μM of DNA-dependent Protein Kinase Inhibitor (DNA-PKi) Compound 6 for 48 hours. 72 hours post-nucleofection, myoblasts were subjected to either genomic DNA isolation or RNA foci staining by fluorescence in situ hybridization (FISH).
CRISPR repeat excision efficiency was assessed for each of the 88 pairs (FIG. 8A-B and Table 5). CTG repeat excision efficiency percentages are shown for vehicle (DMSO; white bars) and with DNA-PKi (black bars) (FIG. 8B and Table 5).

[2] = system: CUG foci in primary DM1 patient myoblasts; test: Dual-cut screening: FISH staining of CUG RNA foci; type: cell-based, human; settings: sgRNA pair, primary DM1 patient myoblasts; for % of CUG foci free nuclei (DNA-PKi): 3 μM DNA-PKi Compound 6 for 48 hours; for % of CUG foci free nuclei (Vehicle): vehicle (DMSO)
Method in brief: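 SluCas9 RNPs (protein:sgRNA 1:3; 20 pmol SluCas9 + 60 pmol sgRNA per guide, paired 1:1) nucleofected into primary DM1 patient myoblasts, then DMSO or 3 μM DNA-PKi Compound 6 for 48 h. At 72 h post-nucleofection cells fixed, FISH-stained with Cy3-PNA(CAG)5 probe plus anti-MBNL1 and Hoechst; % CUG foci-free nuclei by high-content confocal imaging.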

Q: “SluU06 + SluD34 (guide 1 TGTCTTCGACTCCGGGGCCCCG; guide 2 CGCGCCAGACGCTCCCCAGAGC; guide RNA; listed as DNA, chemistry not fully specified)” was tested. Which “Excision efficiency (by ddPCR)” value [1] did it give?
A: Its value is 67.57.

Q: What about the “Excision efficiency by ddPCR (Vehicle)” value [1] of the same substance?
A: Its value is 51.37.

Q: What about the “% of CUG foci free nuclei (DNA-PKi)” value [2] of the same substance?
A: The value was 90.66%.

Q: What about the “% of CUG foci free nuclei (Vehicle)” value [2] of the same substance?
A: The value was 78.56%.

Q: With “SluU08 + SluD83 (guide 1 GCCCCGTTGGAAGACTGAGTGC; guide 2 GTGGGGACAGACAATAAATACC; guide RNA; listed as DNA, chemistry not fully specified)” as the substance, how does the “Excision efficiency (by ddPCR)” value [1] read?
A: Its value is 70.46.

Q: What about the “Excision efficiency by ddPCR (Vehicle)” value [1] of the same substance?
A: Its value is 45.64.

Q: What about the “% of CUG foci free nuclei (DNA-PKi)” value [2] of the same substance?
A: Its value is 90.38%.

Q: And the “% of CUG foci free nuclei (Vehicle)” value [2]?
A: Its value is 68.14%.

Q: “SluU06 + SluD18 (guide 1 TGTCTTCGACTCCGGGGCCCCG; guide 2 TGGAGGATGGAACACGGACGGC; guide RNA; listed as DNA, chemistry not fully specified)” was tested. Which “Excision efficiency (by ddPCR)” value [1] did it give?
A: The value was 64.53.

Q: What about the “Excision efficiency by ddPCR (Vehicle)” value [1] of the same substance?
A: Its value is 45.61.

Q: And the “% of CUG foci free nuclei (DNA-PKi)” value [2]?
A: Its value is 87.79%.

Q: What about the “% of CUG foci free nuclei (Vehicle)” value [2] of the same substance?
A: Its value is 69.25%.

Q: Which results are given for “SluU21 + SluD73 (guide 1 GCTCGGAGCGGTTGTGAACTGG; guide 2 CCAAAACGTGGATTGGGGTTGT; guide RNA; listed as DNA, chemistry not fully specified)”?
A: Excision efficiency (by ddPCR) [1]: 61.57; Excision efficiency by ddPCR (Vehicle) [1]: 36.17; % of CUG foci free nuclei (DNA-PKi) [2]: 88.18%; % of CUG foci free nuclei (Vehicle) [2]: 51.12%

Q: For “SluU21 + SluD68 (guide 1 GCTCGGAGCGGTTGTGAACTGG; guide 2 CCTGTAGCCTGTCAGCGAGTCG; guide RNA; listed as DNA, chemistry not fully specified)”, which “Excision efficiency (by ddPCR)” value [1] is on record?
A: The value was 58.7.

Q: What about the “Excision efficiency by ddPCR (Vehicle)” value [1] of the same substance?
A: Its value is 35.67.

Q: And the “% of CUG foci free nuclei (DNA-PKi)” value [2]?
A: Its value is 87.57%.

Q: What about the “% of CUG foci free nuclei (Vehicle)” value [2] of the same substance?
A: Its value is 51.5%.

Q: For “SluU62 + SluD32 (guide 1 AGGACCCTTCGAGCCCCGTTCG; guide 2 CTTGTGCATGACGCCCTGCTCT; guide RNA; listed as DNA, chemistry not fully specified)”, which “Excision efficiency (by ddPCR)” value [1] is on record?
A: Its value is 79.91.

Q: And the “Excision efficiency by ddPCR (Vehicle)” value [1]?
A: Its value is 50.19.

Q: What about the “% of CUG foci free nuclei (DNA-PKi)” value [2] of the same substance?
A: The value was 88.75%.

Q: And the “% of CUG foci free nuclei (Vehicle)” value [2]?
A: The value was 55.63%.

Q: Which results are given for “SluU63 + SluD68 (guide 1 GGGGCTCGAAGGGTCCTTGTAG; guide 2 CCTGTAGCCTGTCAGCGAGTCG; guide RNA; listed as DNA, chemistry not fully specified)”?
A: Excision efficiency (by ddPCR) [1]: 93.64; Excision efficiency by ddPCR (Vehicle) [1]: 57.23; % of CUG foci free nuclei (DNA-PKi) [2]: 90.625%; % of CUG foci free nuclei (Vehicle) [2]: 71.74%

Q: With “SluU63 + SluD83 (guide 1 GGGGCTCGAAGGGTCCTTGTAG; guide 2 GTGGGGACAGACAATAAATACC; guide RNA; listed as DNA, chemistry not fully specified)” as the substance, how does the “Excision efficiency (by ddPCR)” value [1] read?
A: The value was 93.27.

Q: And the “Excision efficiency by ddPCR (Vehicle)” value [1]?
A: The value was 58.74.

Q: What about the “% of CUG foci free nuclei (DNA-PKi)” value [2] of the same substance?
A: Its value is 89.8%.

Q: What about the “% of CUG foci free nuclei (Vehicle)” value [2] of the same substance?
A: The value was 74.11%.

Q: Which results are given for “SluU10 + SluD32 (guide 1 CCCGTTGGAAGACTGAGTGCCC; guide 2 CTTGTGCATGACGCCCTGCTCT; guide RNA; listed as DNA, chemistry not fully specified)”?
A: Excision efficiency (by ddPCR) [1]: 72.52; Excision efficiency by ddPCR (Vehicle) [1]: 48.62; % of CUG foci free nuclei (DNA-PKi) [2]: 90.08%; % of CUG foci free nuclei (Vehicle) [2]: 77.29%

Q: For “SluU10 + SluD14 (guide 1 CCCGTTGGAAGACTGAGTGCCC; guide 2 ATGGGCAAACTGCAGGCCTGGG; guide RNA; listed as DNA, chemistry not fully specified)”, which “Excision efficiency (by ddPCR)” value [1] is on record?
A: The value was 61.58.

Q: What about the “Excision efficiency by ddPCR (Vehicle)” value [1] of the same substance?
A: The value was 43.14.

Q: And the “% of CUG foci free nuclei (DNA-PKi)” value [2]?
A: Its value is 84.04%.

Q: What about the “% of CUG foci free nuclei (Vehicle)” value [2] of the same substance?
A: The value was 62.95%.

Q: With “SluU10 + SluD18 (guide 1 CCCGTTGGAAGACTGAGTGCCC; guide 2 TGGAGGATGGAACACGGACGGC; guide RNA; listed as DNA, chemistry not fully specified)” as the substance, how does the “Excision efficiency (by ddPCR)” value [1] read?
A: Its value is 60.59.

Q: What about the “Excision efficiency by ddPCR (Vehicle)” value [1] of the same substance?
A: Its value is 51.55.

Q: And the “% of CUG foci free nuclei (DNA-PKi)” value [2]?
A: The value was 89.08%.

Q: And the “% of CUG foci free nuclei (Vehicle)” value [2]?
A: Its value is 71.69%.

Q: Which results are given for “SluU21 + SluD32 (guide 1 GCTCGGAGCGGTTGTGAACTGG; guide 2 CTTGTGCATGACGCCCTGCTCT; guide RNA; listed as DNA, chemistry not fully specified)”?
A: Excision efficiency (by ddPCR) [1]: 70.09; Excision efficiency by ddPCR (Vehicle) [1]: 41.94; % of CUG foci free nuclei (DNA-PKi) [2]: 88.76%; % of CUG foci free nuclei (Vehicle) [2]: 52.71%

Q: How did the “Excision efficiency (by ddPCR)” value [1] turn out when “SluU21 + SluD06 (guide 1 GCTCGGAGCGGTTGTGAACTGG; guide 2 CCAGGCTGAGGCCCTGACGTGG; guide RNA; listed as DNA, chemistry not fully specified)” was run?
A: Its value is 66.01.

Q: And the “Excision efficiency by ddPCR (Vehicle)” value [1]?
A: Its value is 46.6.

Q: And the “% of CUG foci free nuclei (DNA-PKi)” value [2]?
A: The value was 88.47%.

Q: And the “% of CUG foci free nuclei (Vehicle)” value [2]?
A: Its value is 48.27%.

Q: With “SluU21 + SluD14 (guide 1 GCTCGGAGCGGTTGTGAACTGG; guide 2 ATGGGCAAACTGCAGGCCTGGG; guide RNA; listed as DNA, chemistry not fully specified)” as the substance, how does the “Excision efficiency (by ddPCR)” value [1] read?
A: The value was 63.05.

Q: What about the “Excision efficiency by ddPCR (Vehicle)” value [1] of the same substance?
A: The value was 54.02.

Q: And the “% of CUG foci free nuclei (DNA-PKi)” value [2]?
A: Its value is 89.6%.

Q: And the “% of CUG foci free nuclei (Vehicle)” value [2]?
A: The value was 61.25%.

Q: With “SluU21 + SluD100 (guide 1 GCTCGGAGCGGTTGTGAACTGG; guide 2 GTCCAGAGCTTTGGGCAGATGG; guide RNA; listed as DNA, chemistry not fully specified)” as the substance, how does the “Excision efficiency (by ddPCR)” value [1] read?
A: The value was 63.99.

Q: What about the “Excision efficiency by ddPCR (Vehicle)” value [1] of the same substance?
A: The value was 36.68.

Q: What about the “% of CUG foci free nuclei (DNA-PKi)” value [2] of the same substance?
A: The value was 87.7%.

Q: What about the “% of CUG foci free nuclei (Vehicle)” value [2] of the same substance?
A: The value was 48.33%.

Q: For “SluU10 + SluD83 (guide 1 CCCGTTGGAAGACTGAGTGCCC; guide 2 GTGGGGACAGACAATAAATACC; guide RNA; listed as DNA, chemistry not fully specified)”, which “Excision efficiency (by ddPCR)” value [1] is on record?
A: The value was 68.8.

Q: And the “Excision efficiency by ddPCR (Vehicle)” value [1]?
A: The value was 47.63.

Q: What about the “% of CUG foci free nuclei (DNA-PKi)” value [2] of the same substance?
A: The value was 89.5%.

Q: What about the “% of CUG foci free nuclei (Vehicle)” value [2] of the same substance?
A: The value was 74.17%.

— patent US20240173432A1, “Compositions and Methods for Treatment of Myotonic Dystrophy Type 1 with CRISPR/SluCas9” (Vertex Pharmaceuticals Incorporated, priority 2021, published 2024)
